In US8574563B2 (Bristol-Myers Squibb Company, priority 2006, dated 2013):

System: HCV 1b-377-neo replicon cells
Assay: HCV replicon assay, HCV 1b-377-neo replicon cells (1b FRET)
Assay type: cell-based, Hepatitis C virus genotype 1b
Settings: HCV 1b-377-neo replicon cells, HCV 1b genotype; for EC50: Hepatitis C virus, read-out: EC50 range against HCV 1b (Table 2, Range)
In short: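 Compounds tested in HCV genotype 1b-377-neo replicon cells with a FRET read-out. Cells resistant to a reference NS5A inhibitor through a Y2065H NS5A mutation were run alongside wild-type cells.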

Structure (SMILES) | EC50 [nM] | EC50 range against HCV 1b (Table 2, Range)
O=C(C(c1ccccc1)N1C2CCC1CC2)N1CCC[C@H]1c1ncc(-c2ccc(-c3ccc(-c4cnc([C@@H]5CCCN5C(=O)C(c5ccccc5)N5C6CCC5CC6)[nH]4)cc3)cc2)[nH]1 (stereo partly drawn) [Example M2, 7,7′-(4,4′-biphenyldiylbis(1H-imidazole-5,2-diyl(2S)-2,1-pyrrolidinediyl(2-oxo-1-phenyl-2,1-ethanediyl)))bis(7-azabicyclo[2.2.1]heptane)] | 1 to 99 | 
CCN(C1CC1)[C@@H](C(=O)N1CCC[C@H]1c1ncc(-c2ccc(-c3ccc(-c4cnc([C@@H]5CCCN5C(=O)[C@@H](c5ccccc5)N(CC)C5CC5)[nH]4)cc3)cc2)[nH]1)c1ccccc1 [Example M3, N,N′-(4,4′-biphenyldiylbis(1H-imidazole-5,2-diyl(2S)-2,1-pyrrolidinediyl((1R)-2-oxo-1-phenyl-2,1-ethanediyl)))bis(N-ethylcyclopropanamine)] | 1 to 99 | 
CCOC(=O)N[C@H](C)C(=O)N1CCC[C@H]1c1ncc(-c2ccc(-c3ccc(-c4cnc([C@@H]5CCCN5C(=O)[C@@H](C)NC(=O)OCC)[nH]4)cc3)cc2)[nH]1 [Example M4, ethyl ((1R)-2-((2S)-2-(5-(4′-(2-((2S)-1-(N-(ethoxycarbonyl)-D-alanyl)-2-pyrrolidinyl)-1H-imidazol-5-yl)-4-biphenylyl)-1H-imidazol-2-yl)-1-pyrrolidinyl)-1-methyl-2-oxoethyl)carbamate] | 100 to 999 | 
CCOC(=O)N[C@@H](C)C(=O)N1CCC[C@H]1c1ncc(-c2ccc(-c3ccc(-c4cnc([C@@H]5CCCN5C(=O)[C@H](C)NC(=O)OCC)[nH]4)cc3)cc2)[nH]1 [Example M5, ethyl ((1S)-2-((2S)-2-(5-(4′-(2-((2S)-1-(N-(ethoxycarbonyl)-L-alanyl)-2-pyrrolidinyl)-1H-imidazol-5-yl)-4-biphenylyl)-1H-imidazol-2-yl)-1-pyrrolidinyl)-1-methyl-2-oxoethyl)carbamate] | 1000 to 10000 | 
COC(=O)NC1(C(=O)N2CCC[C@H]2c2ncc(-c3ccc(-c4ccc(-c5cnc([C@@H]6CCCN6C(=O)C6(NC(=O)OC)CC6)[nH]5)cc4)cc3)[nH]2)CC1 [Example M6, dimethyl (4,4′-biphenyldiylbis(1H-imidazole-5,2-diyl(2S)-2,1-pyrrolidinediylcarbonyl-1,1-cyclopropanediyl))bis-carbamate] | 1000 to 10000 | 
COC(=O)NC(C)(C)C(=O)N1CCC[C@H]1c1ncc(-c2ccc(-c3ccc(-c4cnc([C@@H]5CCCN5C(=O)C(C)(C)NC(=O)OC)[nH]4)cc3)cc2)[nH]1 [Example M7, methyl (2-((2S)-2-(5-(4′-(2-((2S)-1-(2-((methoxycarbonyl)amino)-2-methylpropanoyl)-2-pyrrolidinyl)-1H-imidazol-5-yl)-4-biphenylyl)-1H-imidazol-2-yl)-1-pyrrolidinyl)-1,1-dimethyl-2-oxoethyl)carbamate] |  | >A
C[C@H](C(=O)N1CCC[C@H]1c1ncc(-c2ccc(-c3ccc(-c4cnc([C@@H]5CCCN5C(=O)[C@@H](C)N(C)C)[nH]4)cc3)cc2)[nH]1)N(C)C [Example M8, (2R,2′R)-1,1′-(4,4′-biphenyldiylbis(1H-imidazole-5,2-diyl(2S)-2,1-pyrrolidinediyl))bis(N,N-dimethyl-1-oxo-2-propanamine)] | 1000 to 10000 | 
CCN(CC)[C@H](C)C(=O)N1CCC[C@H]1c1ncc(-c2ccc(-c3ccc(-c4cnc([C@@H]5CCCN5C(=O)[C@@H](C)N(CC)CC)[nH]4)cc3)cc2)[nH]1 [Example M9, (2R,2′R)-1,1′-(4,4′-biphenyldiylbis(1H-imidazole-5,2-diyl(2S)-2,1-pyrrolidinediyl))bis(N,N-diethyl-1-oxo-2-propanamine)] | 100 to 999 | 
CCN(CC)[C@@H](C(=O)N1CCC[C@H]1c1ncc(-c2ccc(-c3ccc(-c4cnc([C@@H]5CCCN5C(=O)[C@@H](C(C)C)N(CC)CC)[nH]4)cc3)cc2)[nH]1)C(C)C [Example M10, (2R,2′R)-1,1′-(4,4′-biphenyldiylbis(1H-imidazole-5,2-diyl(2S)-2,1-pyrrolidinediyl))bis(N,N-diethyl-3-methyl-1-oxo-2-butanamine)] |  | >A
